Test results published in patent publication US20070244030A1, “Method for Assessing Cancerous State” (SUMITOMO CHEMICAL COMPANY, LIMITED, priority 2003, published 2007).

Key:
Neurofilament3 gene [1] = assay: Real Time PCR of Neurofilament3 mRNA in PANC-1 cultured with methylation inhibitor; assay type: cell-based, human; details: PANC-1 pancreatic cancer cell line, cells recovered on fourth day, not detected without inhibitor
Protocol: (§1) Two kinds of human-derived pancreatic cancer cell lines (PANC-1 and HPAC) were seeded at a density of about 6×10^5 cells/10 cm plate, and cultured using an exclusively used medium. On the first day after seeding, 5-aza-2′-deoxytidine (manufactured by Sigma) (hereinafter, referred to as 5Aza-dC) which is a methylation inhibitor was added to a medium to give the concentration of 0.5 or 1 μM. Twenty four hours after addition of 5Aza-Dc, the medium was exchanged with the aforementioned medium to which no 5Aza-dC was added, and culturing was continued. Then, on the third day after seeding, 5Aza-dC was added to the medium similarly. […]
(§2) A reaction solution of PCR was used which was obtained by mixing 50 ng of a cDNA as a template, each 1 μl of two kinds of 10 pmol/μl aforementioned primer solution, 4 μl of 2.5 mM dNTP, 4 μl of 5 mM dUTP, 5 μl of 10×SYBR Green PCR Buffer, 6 μof 25 mM MgCl2 and 0.3 μl of a 5 U/μl thermostable DNA polymerase (AmpliTaq Gold), 0.5 μl of AmpEraseUNG and adding sterilized ultrapure water thereto to an amount of solution of 50 μl. […] When a DNA derived from mRNA of Neurofilament3 gene and GAPDH gene was amplified, after the reaction solution Was retained at 95° C. for 10 minutes, Real Time PCR was performed at the conditions under which each cycle was 30 seconds at 95° C., 30 seconds at 59° C. and 30 seconds at 72° C. to quantitate Neurofilament3 gene and GAPDH gene.

Neurofilament3 gene [2] = assay: Real Time PCR of Neurofilament3 mRNA in HPAC cultured with methylation inhibitor; assay type: cell-based, human; details: HPAC pancreatic cancer cell line, cells recovered on fourth day, not detected without inhibitor
Protocol: as §1, §2

[3] = 0.5 μM 5Aza-dC added on first and third day
[4] = 1 μM 5Aza-dC added on first and third day

Measured: DNA derived from a mRNA of Neurofilament3 gene (expression of Neurofilament3 gene)

Nc1ncn([C@H]2C[C@H](O)[C@@H](CO)O2)c(=O)n1 [5Aza-dC, 5-aza-2′-deoxytidine]
detected: Neurofilament3 gene [1]; [3] | Neurofilament3 gene [1]; [4] | Neurofilament3 gene [2]; [3] | Neurofilament3 gene [2]; [4]
